From US10793892B2, “Method for detecting the presence of expanded spectrum β-lactamase-producing bacteria in a sample” (INSERM (INSTITUT NATIONAL DE LA SANTE ET DE LA RECHERCHE …, priority 2011, dated 2020)

Columns and labels:
P. mirabilis [1] = experiment: Susceptibility testing, MIC by Etest; assay type: cell-based, Proteus mirabilis
Procedure: (§1) Susceptibility testing was performed by determining MIC values using the Etest® (AB bioMérieux; Solna, Sweden) on Mueller-Hinton agar plates at 37° C. and results were recorded according to US guidelines (CLSI), as updated in 2012 (2). The breakpoints for cefotaxime are susceptible (S)≤1 and resistant (R)≥4 μg/ml, and for ceftazidime S≤4 and R≥16 μg/ml.

E. coli = experiment: ESBL NDP test using spiked blood cultures; assay type: biochemical, Escherichia coli; parameters: key: (+) and (−) referred to color change being, red to yellow or unchanged, respectively; (+) and (−) referred to color change being, red to yellow or unchanged, respectively
Procedure: (§2) Strains were isolated on Mueller-Hinton agar (Biorad, Marnes-la-Coquette, France) and incubated at 37° C. for 16 h to 24 h before performing the NDP rapid ESBL test as follows. One calibrated inoculated loop (10 μl) of the tested strain was resuspended in 150 μl of 20 mM Tris-HCl lysis buffer previously distributed in Microbead tubes (Ultraclean Microbial DNA isolation kit Bead Tubes, MO BIO Laboratories, Carlsbad, USA). Mechanical lysis of bacteria was performed by strong agitation of Microbead tubes using a vortex adapter (MO BIO Laboratories) for 30 min at room temperature. This bacterial suspension was centrifuged at 10,000×g at room temperature for 5 min. Thirty μl of the supernatant was mixed in a well of a 96-well tray with 100 μl of a 1 ml solution made of 3 mg of purified cefotaxime sodium salt (Sigma-Aldrich, Saint-Quentin-Fallavier, France) in a pH 7.8 phenol red solution. […]. The phenol red solution was made by taking 2 ml of a concentrated pH 8 phenol solution (made from a mixture of phenol red 0.5% in distilled water) to which 16.6 ml of distilled water was added. The pH value was then adjusted to a 7.8 value by adding drops of a 1 N NaOH solution. Mixture of the phenol red solution and the enzymatic suspension being tested was incubated at 37° C. for 30 min. Similarly, culture extracts were analyzed in wells containing cefotaxime and tazobactam (4 mg/ml). Other concentrations of tazobactam and other ß-lactamase inhibitors were tested giving less clear results (data not shown). […] This definition of test positivity will be applied throughout the study.
Rapid detection of ESBL producers was attempted from spiked blood cultures which positivity was assessed using the BactAlert blood culture system (bioMérieux). […] This inoculum was reached after 24-48 h incubation in this BactAlert system. Strains were inoculated into blood culture system in presence of 10 ml of sterile blood. The panel of strains used for spiking blood cultures included either non-ESBL producers (n=24) or ESBL producers (n=64) (Table 4). Spiked blood cultures were made of 1×10^3 CFU of each strain and incubated 24 to 48 h before a positivity of the blood culture was detected by the BactAlert system. Then, 15 ml of spiked blood culture were transferred in a sterile tube and centrifuged at 1,500×g for 3 min to pellet the red blood cells. The supernatant was recovered and centrifuged for 15 min at 4,000×g to pellet the bacteria. The bacterial pellet was then resuspended in 500 μl of distilled water, transferred in 1.5 ml tube and thoroughly vortexed for 15 sec to lyse the remnant red blood cells and wash the bacterial pellet. After 5 min of centrifugation at 10,000×g, the bacterial pellet was resuspended in 150 μl of 20 mM Tris-HCl lysis buffer and distributed in beadtubes. The ESBL NDP test was then applied to this pellet as described above. Experiments were systematically performed in triplicate.

M. morganii = experiment: Susceptibility testing, MIC by Etest; assay type: cell-based, Morganella morganii; settings: M. morganii Wild-type, chromosome-encoded cephalosporinase, n=2
Procedure: as §1

E. sakazakii = experiment: ESBL NDP test using cultured strains; assay type: biochemical; parameters: key: (+) and (−) referred to color change being, red to yellow or unchanged, respectively; (+) and (−) referred to color change being, red to yellow or unchanged, respectively; settings: overexpressed chromosome-encoded cephalosporinase, n=1
Procedure: as §2

P. mirabilis [2] = experiment: ESBL NDP test using cultured strains; assay type: biochemical, Proteus mirabilis; parameters: key: (+) and (−) referred to color change being, red to yellow or unchanged, respectively; (+) and (−) referred to color change being, red to yellow or unchanged, respectively
Procedure: as §2

K. oxytoca = experiment: Susceptibility testing, MIC by Etest; assay type: cell-based, Klebsiella oxytoca; settings: K. oxytoca Wild-type penicillinase, n=1
Procedure: as §1

CO/N=C(\C(=O)N[C@@H]1C(=O)N2C(C(=O)O)=C(COC(C)=O)CS[C@H]12)c1csc(N)n1 [CTX, cefotaxime]
MICs range (P. mirabilis [1]; P. mirabilis ACC-1, n=1): >16 µg/mL | MICs range (P. mirabilis [1]; P. mirabilis CTX-M-14, n=1): >16 µg/mL | MICs range (P. mirabilis [1]; P. mirabilis CTX-M-15, n=1): >16 µg/mL | MICs range (P. mirabilis [1]; P. mirabilis PER-1, n=1): >16 µg/mL | MICs range (P. mirabilis [1]; P. mirabilis TEM-21, n=1): 0.25 µg/mL | MICs range (P. mirabilis [1]; P. mirabilis TEM-52, n=1): >16 µg/mL | ESBL NDP Test from: Blood culture (E. coli; E. coli 09.11, TEM-52): + | ESBL NDP Test from: Blood culture (E. coli; E. coli 09.123, TEM-133): + | ESBL NDP Test from: Blood culture (E. coli; E. coli 09.124, TEM-52): + | ESBL NDP Test from: Blood culture (E. coli; E. coli 09.129, SHV-12): + | ESBL NDP Test from: Blood culture (E. coli; E. coli 09.173, SHV-12): + | ESBL NDP Test from: Blood culture (E. coli; E. coli 09.187, SHV-2a): + | ESBL NDP Test from: Blood culture (E. coli; E. coli 09.193, SHV-12): + | ESBL NDP Test from: Blood culture (E. coli; E. coli 09.207, SHV-2a): + | ESBL NDP Test from: Blood culture (E. coli; E. coli 09.225, TEM-52): + | ESBL NDP Test from: Blood culture (E. coli; E. coli 09.40, TEM-52): + | ESBL NDP Test from: Blood culture (E. coli; E. coli 09.41, SHV-12): + | ESBL NDP Test from: Blood culture (E. coli; E. coli 09.66, TEM-52): + | ESBL NDP Test from: Blood culture (E. coli; E. coli 09.73, TEM-52): + | ESBL NDP Test from: Blood culture (E. coli; E. coli 09.79, SHV-12): + | ESBL NDP Test from: Blood culture (E. coli; E. coli 09.92, TEM-52): + | ESBL NDP Test from: Blood culture (E. coli; E. coli 10.104, CTX-M-1): + | ESBL NDP Test from: Blood culture (E. coli; E. coli 10.11, CTX-M-14): + | ESBL NDP Test from: Blood culture (E. coli; E. coli 10.121, CTX-M-2): + | ESBL NDP Test from: Blood culture (E. coli; E. coli 10.124, CTX-M-14): + | ESBL NDP Test from: Blood culture (E. coli; E. coli 10.130, CTX-M-3): + | ESBL NDP Test from: Blood culture (E. coli; E. coli 10.13, CTX-M-14): + | ESBL NDP Test from: Blood culture (E. coli; E. coli 10.132, CTX-M-2): + | ESBL NDP Test from: Blood culture (E. coli; E. coli 10.16, CTX-M-15): + | ESBL NDP Test from: Blood culture (E. coli; E. coli 10.178, CTX-M-27): + | ESBL NDP Test from: Blood culture (E. coli; E. coli 10.198, CTX-M-27): + | ESBL NDP Test from: Blood culture (E. coli; E. coli 10.204, CTX-M-27): + | ESBL NDP Test from: Blood culture (E. coli; E. coli 10.207, CTX-M-27): + | ESBL NDP Test from: Blood culture (E. coli; E. coli 10.23, CTX-M-2): + | ESBL NDP Test from: Blood culture (E. coli; E. coli 10.32, CTX-M-14): + | ESBL NDP Test from: Blood culture (E. coli; E. coli 10.33, CTX-M-15): + | ESBL NDP Test from: Blood culture (E. coli; E. coli 10.36, CTX-M-1): + | ESBL NDP Test from: Blood culture (E. coli; E. coli 10.38, CTX-M-1): + | ESBL NDP Test from: Blood culture (E. coli; E. coli 10.43, CTX-M-15): + | ESBL NDP Test from: Blood culture (E. coli; E. coli 10.46, CTX-M-14): + | ESBL NDP Test from: Blood culture (E. coli; E. coli 10.49, CTX-M-15): + | ESBL NDP Test from: Blood culture (E. coli; E. coli 10.53, CTX-M-9): + | ESBL NDP Test from: Blood culture (E. coli; E. coli 10.64, CTX-M-32): + | ESBL NDP Test from: Blood culture (E. coli; E. coli 10.73, CTX-M-27): + | ESBL NDP Test from: Blood culture (E. coli; E. coli 10.74, CTX-M-15): + | ESBL NDP Test from: Blood culture (E. coli; E. coli 10.95, CTX-M-1): + | ESBL NDP Test from: Blood culture (E. coli; E. coli (Belgium), ACC-1): − | ESBL NDP Test from: Blood culture (E. coli; E. coli A7R5, SHV-3): + | ESBL NDP Test from: Blood culture (E. coli; E. coli BG 1106 5698, Penicillinase): − | ESBL NDP Test from: Blood culture (E. coli; E. coli BG 1106 6252, Wild-type): − | ESBL NDP Test from: Blood culture (E. coli; E. coli BG 1106 6367, Wild-type): − | ESBL NDP Test from: Blood culture (E. coli; E. coli BG 1106 7202, Penicillinase): − | ESBL NDP Test from: Blood culture (E. coli; E. coli BG 1107 8873, Wild-type): − | ESBL NDP Test from: Blood culture (E. coli; E. coli BG 1108 6157, Penicillinase): − | ESBL NDP Test from: Blood culture (E. coli; E. coli C5O52, CTX-M-28): + | ESBL NDP Test from: Blood culture (E. coli; E. coli Ec13 SYD, CMY-2): + | ESBL NDP Test from: Blood culture (E. coli; E. coli GOU, DHA-1): − | ESBL NDP Test from: Blood culture (E. coli; E. coli LOU, ACC-1): + | MICs range (M. morganii): 0.03 to 0.75 µg/mL | Test (color change) (E. sakazakii): − | ESBL NDP Test from: Colonies (P. mirabilis [2]; P. mirabilis 09.128, TEM-52): + | ESBL NDP Test from: Colonies (P. mirabilis [2]; P. mirabilis 09.177, TEM-21): − | Test (color change) (P. mirabilis [2]; P. mirabilis ACC-1, n=1): − | ESBL NDP Test from: Colonies (P. mirabilis [2]; P. mirabilis BIK, ACC-1): − | Test (color change) (P. mirabilis [2]; P. mirabilis CTX-M-14, n=1): + | Test (color change) (P. mirabilis [2]; P. mirabilis CTX-M-15, n=1): + | Test (color change) (P. mirabilis [2]; P. mirabilis PER-1, n=1): + | Test (color change) (P. mirabilis [2]; P. mirabilis TEM-21, n=1): + | Test (color change) (P. mirabilis [2]; P. mirabilis TEM-52, n=1): + | MICs range (K. oxytoca): 0.03 µg/mL
